According to ChEMBL document CHEMBL3751770, “Identification of benzothiophene amides as potent inhibitors of human nicotinamide phosphoribosyltransferase” (Bioorg Med Chem Lett, 2016):

Tests used:
[1] = Cytotoxicity against human HCT116 cells after 72 hrs by MTT assay; type: functional, cell-based; conditions: HCT-116, 72 h
[2] = target: Nicotinamide phosphoribosyltransferase (Homo sapiens, UniProt P43490); assay: Inhibition of human Nampt using NAM as substrate after 15 mins by fluorometric method
Chain of Nicotinamide phosphoribosyltransferase (P43490 whole entry): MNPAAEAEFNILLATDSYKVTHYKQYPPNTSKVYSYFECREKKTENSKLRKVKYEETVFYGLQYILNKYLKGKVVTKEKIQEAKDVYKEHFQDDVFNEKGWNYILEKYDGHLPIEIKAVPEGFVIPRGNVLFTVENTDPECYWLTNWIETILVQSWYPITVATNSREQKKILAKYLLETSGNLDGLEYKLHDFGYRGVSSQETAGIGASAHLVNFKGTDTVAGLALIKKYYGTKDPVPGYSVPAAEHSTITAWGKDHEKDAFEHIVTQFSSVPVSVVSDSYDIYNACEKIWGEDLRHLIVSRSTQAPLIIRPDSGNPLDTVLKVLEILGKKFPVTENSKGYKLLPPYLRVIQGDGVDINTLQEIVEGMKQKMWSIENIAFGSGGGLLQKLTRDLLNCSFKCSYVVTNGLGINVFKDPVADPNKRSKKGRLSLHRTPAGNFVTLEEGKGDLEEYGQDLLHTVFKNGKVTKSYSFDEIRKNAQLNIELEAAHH

MDA-MB-231 = assay: Cytotoxicity against human MDA-MB-231 cells after 72 hrs by MTT assay; type: functional, cell-based; conditions: MDA-MB-231, 72 h
HepG2 [3] = assay: Cytotoxicity against human HepG2 cells after 72 hrs by MTT assay; type: functional, cell-based; conditions: HepG2, 72 h
HepG2 [4] = assay: Induction of apoptosis in human HepG2 cells assessed as late apoptotic cells level at 5 uM after 48 hrs using annexin VFITC/propidium iodide staining by flow cytometry (reference value: 2.85%); type: functional
HepG2 [5] = assay: Induction of apoptosis in human HepG2 cells assessed as early apoptotic cells level at 5 uM after 48 hrs using annexin VFITC/propidium iodide staining by flow cytometry (reference value: 2.84%); type: functional
HepG2 [6] = assay: Induction of apoptosis in human HepG2 cells assessed as necrotic cells level at 5 uM after 48 hrs using annexin VFITC/propidium iodide staining by flow cytometry (reference value: 4.09%); type: functional

Row | IC50 [2] | Compound | IC50 [1] | IC50 (MDA-MB-231) | IC50 (HepG2 [3]) | Activity (HepG2 [4]) | Activity (HepG2 [5]) | Activity (HepG2 [6])
1 | 0.86 µM | COc1ccc(CCNC(=O)c2ccc(C)s2)cc1OC | > 307 µM | > 307 µM | > 307 µM |  |  | 
2 | > 10 µM | Cc1ccsc1C(=O)NCCCn1ccnc1 | 198 µM | > 276 µM | 102 µM |  |  | 
3 | > 10 µM | O=C(NCCCn1ccnc1)c1ccc([N+](=O)[O-])s1 | > 390 µM | > 390 µM | 60 µM |  |  | 
4 | > 10 µM | COc1ccc(CCNC(=O)c2ccc([N+](=O)[O-])s2)cc1OC | 86 µM | > 328 µM | 80 µM |  |  | 
5 | > 10 µM | O=C(/C=C/c1cccnc1)NCCCn1ccnc1 | > 276 µM | > 276 µM | > 276 µM |  |  | 
6 | > 10 µM | COc1ccc(CCNC(=O)CNC(=O)c2sccc2C)cc1OC | 196 µM | > 328 µM | 47 µM |  |  | 
7 | 1.1 µM | O=C(NCCCn1ccnc1)c1cc2ccccc2s1 | 25 µM | 36 µM | 5.2 µM | 24.42% | 1.88% | 6.75%
8 |  | COc1ccc(CCNC(=O)c2cc3ccccc3s2)cc1OC | 281 µM | > 293 µM | 82 µM |  |  | 
9 | 5.3 µM | COc1ccc(CCNC(=O)c2sccc2C)cc1OC | 169 µM | 191 µM | 99 µM |  |  | 
10 | 0.95 µM | COc1ccc(CCNC(=O)CNC(=O)c2ccc(C)s2)cc1OC | > 401 µM | > 401 µM | > 401 µM |  |  | 
11 | > 10 µM | COc1ccc(CCNC(=O)/C=C/c2cccnc2)cc1OC | > 401 µM | > 401 µM | > 401 µM |  |  | 
12 | 1.4 µM | COc1ccc(CCNC(=O)c2cc3ccccc3o2)cc1OC | 159 µM | > 371 µM | 137 µM |  |  | 
13 | 1 µM | O=C(NCCCn1ccnc1)c1cc2ccccc2o1 | 61 µM | 10 µM | 11 µM |  |  | 
14 | 0.17 µM | Cc1ccc(C(=O)NCCCn2ccnc2)s1 | > 320 µM | > 320 µM | 3.9 µM | 47.51% | 1.03% | 6.62%
